Experimental findings from patent US10399974B2, “N2-phenyl-pyrido[3,4-D]pyrimidine-2, 8-diamine derivatives and their use as Mps1 inhibitors” (Cancer Research Technology Limited, priority 2014, dated 2019) are described below.

full length MPS1, sequence (P33981 whole entry): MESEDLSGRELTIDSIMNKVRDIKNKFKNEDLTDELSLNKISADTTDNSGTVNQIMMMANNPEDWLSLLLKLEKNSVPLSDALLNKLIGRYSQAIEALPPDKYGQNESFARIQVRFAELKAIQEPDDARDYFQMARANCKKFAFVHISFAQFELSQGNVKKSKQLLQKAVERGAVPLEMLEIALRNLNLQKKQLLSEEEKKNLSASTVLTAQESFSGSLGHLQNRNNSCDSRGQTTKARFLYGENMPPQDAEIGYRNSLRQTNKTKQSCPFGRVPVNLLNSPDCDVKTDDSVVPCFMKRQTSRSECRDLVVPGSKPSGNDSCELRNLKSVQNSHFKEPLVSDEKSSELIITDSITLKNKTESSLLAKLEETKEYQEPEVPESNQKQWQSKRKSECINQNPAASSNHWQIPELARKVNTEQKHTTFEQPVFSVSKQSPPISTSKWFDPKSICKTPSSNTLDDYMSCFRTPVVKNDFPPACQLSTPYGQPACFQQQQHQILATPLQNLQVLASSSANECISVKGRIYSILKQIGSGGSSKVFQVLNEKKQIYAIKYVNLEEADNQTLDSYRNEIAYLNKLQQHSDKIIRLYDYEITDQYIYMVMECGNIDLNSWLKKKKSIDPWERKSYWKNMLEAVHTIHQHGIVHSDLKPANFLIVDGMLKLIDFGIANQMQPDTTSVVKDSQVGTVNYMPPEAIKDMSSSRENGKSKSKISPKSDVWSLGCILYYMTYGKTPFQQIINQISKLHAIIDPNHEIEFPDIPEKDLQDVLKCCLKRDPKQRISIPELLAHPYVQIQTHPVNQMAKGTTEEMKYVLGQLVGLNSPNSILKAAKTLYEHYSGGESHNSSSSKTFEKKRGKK

The target in the assay is full length MPS1 (Homo sapiens (Human), UniProt P33981). The assay is described as follows: Measurement of Inhibition of MPS1 Kinase. Conditions: full length MPS1 12.5 nM or 3 nM, H236 peptide 5 μM, ATP 10 μM, 60 min at room temperature, Caliper EZ reader II; read-out: MPS1 IC50. The format is biochemical. The procedure:
Measurement of Inhibition of MPS1 Kinase
(5 μM), ATP (10 μM), either DMSO (1% v/v) or the test compound (in the range 0.25 nM-100 μM in 1% DMSO) and assay buffer (50 mM HEPES (pH 7.0), 0.02% NaN3, 0.01% BSA, 0.1 mM Orthovandate, […], 1 μM DTT, Roche protease inhibitor). The reaction was carried out for 60 min at room temperature and stopped by the addition of buffer (10 μl) containing 20 mM EDTA, 0.05% (v/v) Brij-35, in 0.1M HEPES-buffered saline (Free acid, Sigma, UK). The plate was read on a Caliper EZ reader II (Caliper Life Sciences).
The reader provides a Software package (‘Reviewer’) which converts the peak heights into % conversion by measuring both product and substrate peak and also allows selection of control well which represent 0% and 100% inhibition, respectively. The % inhibition of the compounds is calculated relative to the means of selected control wells. IC50s are determined by testing the compounds at a range of concentrations from 0.25 nM-100 μM. The % inhibitions at each concentration are then fitted to a 4 parameter logistic fit: y=(a+((b−a)/(1+((c/x^d)))) where a=asym min, b=asym max, c=IC50 and d=hill coefficient
Take `CCOc1cc(-c2nncn2C)ccc1Nc1ncc2cc(C)nc(N3CCC(OC)C3)c2n1` (stereo not drawn) [Example 39, N-(2-ethoxy-4-(4-methyl-4H-1,2,4-triazol-3-yl)phenyl)-8-(3-methoxypyrrolidin-1-yl)-6-methylpyrido[3,4-d]pyrimidin-2-amine]: the half-inhibitory concentration (IC50) was 3 nM.

In the case of `CCOc1cc(-c2nncn2C)ccc1Nc1ncc2cc(C)nc(N3CCCC(OC)C3)c2n1` (racemic) [Example 47, Racemic-N-(2-ethoxy-4-(4-methyl-4H-1,2,4-triazol-3-yl)phenyl)-8-(3-methoxypiperidin-1-yl)-6-methylpyrido[3,4-d]pyrimidin-2-amine], the IC50 amounted to 6 nM.

Take `CCOc1cc(-c2nncn2C)ccc1Nc1ncc2cc(C)nc(N3CCC4(CCOC4)C3)c2n1` (stereo not drawn) [Example 27, N-(2-ethoxy-4-(4-methyl-4H-1,2,4-triazol-3-yl)phenyl)-6-methyl-8-(2-oxa-7-azaspiro[4.4]nonan-7-yl)pyrido[3,4-d]pyrimidin-2-amine]: the IC50 was found to be 4 nM.

As for `COc1cc(-c2cnc(C)n2C)ccc1Nc1ncc2cc(C)nc(N3CC(C)(C)C3)c2n1` [Example 19, N-(4-(1,2-dimethyl-1H-imidazol-5-yl)-2-methoxyphenyl)-8-(3,3-dimethylazetidin-1-yl)-6-methylpyrido[3,4-d]pyrimidin-2-amine], the IC50 turned out to be 5 nM.

For `CCOc1cc(-c2nncn2C)ccc1Nc1ncc2cc(C)nc(N[C@@H](C)C(C)(C)C)c2n1` [Example 54, (S)-N8-(3,3-dimethylbutan-2-yl)-N2-(2-ethoxy-4-(4-methyl-4H-1,2,4-triazol-3-yl)phenyl)-6-methylpyrido[3,4-d]pyrimidine-2,8-diamine], the 50% inhibitory concentration (IC50) stood at 4 nM.

As to `CCOc1cc(-c2nncn2C)ccc1Nc1ncc2cc(C)nc(N3CCC(OC)CC3)c2n1` [Example 46, N-(2-ethoxy-4-(4-methyl-4H-1,2,4-triazol-3-yl)phenyl)-8-(4-methoxypiperidin-1-yl)-6-methylpyrido[3,4-d]pyrimidin-2-amine], the half-inhibitory concentration (IC50) was 3 nM.

`Cc1cc2cnc(Nc3ccc(-c4nncn4C)cc3OC(F)F)nc2c(N2CC(C)(C)C2)n1` [Example 62, N-(2-(difluoromethoxy)-4-(4-methyl-4H-1,2,4-triazol-3-yl)phenyl)-8-(3,3-dimethylazetidin-1-yl)-6-methylpyrido[3,4-d]pyrimidin-2-amine]: the IC50 was determined as 16 nM.

Turning to `CCOc1cc(-c2nncn2C)ccc1Nc1ncc2cc(C)nc(N3CCC(C)(O)C3)c2n1` (stereo not drawn) [Example 37, 1-(2-((2-ethoxy-4-(4-methyl-4H-1,2,4-triazol-3-yl)phenyl)amino)-6-methylpyrido[3,4-d]pyrimidin-8-yl)-3-methylpyrrolidin-3-ol], the IC50 was 3 nM.

For `COc1cc(-c2nnnn2C)ccc1Nc1ncc2cc(C)nc(NCC(C)(C)C)c2n1` [Example 16, N2-(2-methoxy-4-(1-methyl-1H-tetrazol-5-yl)phenyl)-6-methyl-N8-neopentylpyrido[3,4-d]pyrimidine-2,8-diamine], the IC50 came to 5 nM.

In the case of `CCOc1cc(-c2nncn2C)ccc1Nc1ncc2cc(C)nc(N3CC4(CCOCC4)C3)c2n1` [Example 4, N-(2-ethoxy-4-(4-methyl-4H-1,2,4-triazol-3-yl)phenyl)-6-methyl-8-(7-oxa-2-azaspiro[3.5]nonan-2-yl)pyrido[3,4-d]pyrimidin-2-amine], the IC50 amounted to 2 nM.

In the case of `CCOc1cc(-c2nncn2C)ccc1Nc1ncc2cc(C)nc(N3CC4(CCO4)C3)c2n1` [Example 36, N-(2-ethoxy-4-(4-methyl-4H-1,2,4-triazol-3-yl)phenyl)-6-methyl-8-(1-oxa-6-azaspiro[3.3]heptan-6-yl)pyrido[3,4-d]pyrimidin-2-amine], the half-maximal inhibitory concentration (IC50) amounted to 2 nM.

As for `COc1cc(-c2nccn2C)ccc1Nc1ncc2cc(C)nc(NCC(C)(C)C)c2n1` [Example 12, N2-(2-methoxy-4-(1-methyl-1H-imidazol-2-yl)phenyl)-6-methyl-N8-neopentylpyrido[3,4-d]pyrimidine-2,8-diamine], the IC50 turned out to be 4 nM.

As a reminder, the IC50 is the concentration needed to halve the response being measured.
